The values that follow come from publication PMC3974779, “Pterostilbene-Isothiocyanate Conjugate Suppresses Growth of Prostate Cancer Cells Irrespective of Androgen Receptor Status” (PLoS ONE, 2014).

What all share (type): cell-based, human
The test system of one assay is AR in LNCaP cells. In words: Immunofluorescence staining of endogenous AR. Conditions: varying doses of conjugate, 20 μM RESV, DHT. Here is the method: The cells were then incubated with AR rabbit polyclonal antibody diluted 1∶200 in blocking buffer for 1 h at RT. Finally, the cells were washed with PBS and incubated with FITC-labelled anti-rabbit secondary antibody diluted 1∶1000 in blocking buffer for 30 min at room temperature. The cells were then observed under a fluorescence microscope (Zeiss, Axiovert 25, Germany).

Assay [1] has as its system cleaved caspase-3 in PC-3 cells. In words: Akt/ERK siRNA silencing, cleaved caspase-3 immunoblot. Here is the method:
The siRNAs against human Akt and ERK and control siRNA were purchased commercially from Santa Cruz Biotechnology (USA). The LNCaP and PC-3 PCa cells were transfected with siRNAs (at a final concentration of 100 nM) using polyfect transfection reagent (Qiagen, CA, USA) according to manufacturer’s instructions. After 24 h of transfection, the cells were washed properly and replaced with fresh medium. The cells were then treated with 20 μM conjugate for 24 h, and finally protein lysates were prepared on completion of treatment. The levels of p-Akt, p-ERK and cleaved caspase-3 expressions were detected by Western blot analysis.
Figure 5 Differential role of PI3K/Akt and MAPK/ERK pathways in conjugate induced apoptosis of prostate cancer cells. Effects of siRNA mediated silencing of Akt and ERK on conjugate-induced apoptosis of (A) PC-3 and (B) LNCaP cells. LNCaP and PC-3 PCa cells were transfected with siRNAs (at a final concentration of 100 nM) using polyfect transfection reagent. After 24 h of transfection the cells were treated with 20 μM conjugate and allowed to grow for another 24 h. The cell lysates were prepared and the level of p-Akt, p-ERK and cleaved caspase-3 proteins were detected by immunoblot analysis. The histogram on the right panel of each figure represents densitometric analyses of the image data and expressed as percent of control where the results are mean ± SEM of three independent experiments. *and # represents statistically significant difference with respect to control and 20 μM conjugate treated groups respectively at p<0.05.

The test system of assay [2] is AR protein in LNCaP cells. In words: Immunoblot of AR protein. The settings on record: for inhibition of DHT induced AR protein levels: 10 nM DHT; for inhibition of AR protein levels: absence of DHT. Here is the method: The whole-cell lysates were prepared as described previously in immunoprecipitation (IP) buffer containing 50 mM Tris-HCl (pH 8.0), 150 mM NaCl, 5 mM EDTA, and 1% Triton X-100. Protein aliquots of 500 μg were then incubated overnight at 4°C using 2 μg of antibody directed against AR. The Protein A-Cl Agarose beads were then added and further incubated for 6 h at 4°C. The immunoprecipitates were washed four times with the IP buffer and the immunocomplexes were recovered by boiling in SDS sample buffer. Finally the western blot was carried out using anti-AR, anti-SRC-1 and anti-GRIP-1 antibodies (Santa Cruz, CA, USA). For western blot analysis, the cell lysates were prepared after harvesting them in lysis buffer. About 40 μg of total protein was electrophoresed by 12% SDS-PAGE, and the western blotting was carried out using standard protocol. In brief, the analyzed proteins were transferred to nylon membranes. The blots were then blocked with TBST buffer (20 mM Tris-Cl, pH 7.5, 150 mM sodium chloride, 0.05% Tween-20) containing 5% skim milk powder. They were then washed with TBST buffer and incubated overnight at 4°C with the same buffer containing appropriate amounts of primary antibodies: caspase-3, Bax, Bcl-2, Akt, p-Akt, ERK, p-ERK, AR, SRC-1, GRIP-1 (1∶500) and β-actin (1∶1000). The blots were then washed and incubated with anti-rabbit secondary antibody (1∶20,000) conjugated with horseradish peroxidase (HRP). Color development was performed in the dark by using an ECL kit (Amersham, GE Healthcare, Buckinghamshire, UK). The developed blots were subjected to densitometric analysis by ImageJ 1.43 software (NIH, USA) using β-actin as internal control.
For orientation: A western blot detects proteins with antibodies after separation by electrophoresis.

Another assay concerns PC-3 cells. As to the kind of experiment: Annexin-V/PI apoptosis assay by flow cytometry. The settings on record: 24 h. Here is the method:
(§1) Cell cycle distribution and Annexin V/Propidium iodide (PI) positive cells were analyzed using flow cytometry. In brief, first the cells were seeded and treated with 0, 10, 20 and 40 μM conjugate in complete medium for 24 h. This was followed by trypsinizing and fixing in 70% ethanol, and finally washing with PBS. Subsequently, the cells were treated with RNase A (50 μg/ml), stained with PI (50 μg/ml) and incubated in the dark for 30 min at room temperature and analyzed by flow cytometry for cell cycle distribution. For apoptosis, the conjugate treated cells were stained with Alexa-Fluor 488-conjugated Annexin-V using the Vybrant-Apoptosis Assay Kit from Invitrogen (USA) as per the manufacturer’s protocol. The stained cells were then analyzed by fluorescence activated cell sorting (FACS Calibur, BD Biosciences, San Jose, CA, USA) and the data were standardized using Cell Quest 3.3 software.
Background: A flow cytometer gives signals particle by particle.

The test system of another assay is LNCaP cells. In words: Annexin-V/PI apoptosis assay by flow cytometry. Conditions: 24 h. Here is the method: as §1

Consider `COc1cc(/C=C/c2ccc(O)c(/C=N/NC(N)=S)c2)cc(OC)c1` [conjugate, Pterostilbene-isothiocyanate conjugate], for which the AR immunofluorescence intensity entry with AR in LNCaP cells is recorded as “almost complete abolition of fluorescent intensity”. Besides, the “increase in cleaved caspase-3 protein expression vs control” value in assay [1] (PC-3, 20 μM conjugate alone, 24 h) was 3.7 folds; in assay [1] (PC-3, 20 μM conjugate in presence of Akt siRNA), 4.8 folds. Also, the “increase in expression of caspase-3 vs control” value in assay [1] (PC-3, 20 μM conjugate in presence of ERK siRNA) is given as 3.9 folds. The results for the “inhibition of DHT induced AR protein levels” value in assay [2] (10 μM) and in assay [2] (20 μM) were 1.1 folds and 1.8 folds, respectively. In addition, the “inhibition of AR protein levels” value worked out at 2 folds in assay [2] (10 μM) and 5 folds in assay [2] (20 μM). In addition, the “early apoptotic cells (Annexin V positive only, lower right quadrant)” value with PC-3 cells (PC-3, 20 μM) is “about 44%”; in the assay with PC-3 cells (PC-3, 40 μM), around 68%; in the assay with LNCaP cells (20 μM) it was 52%. The “late apoptotic cells (Annexin V and PI positive, upper right quadrant)” value turned out to be 12% with PC-3 cells (PC-3, 20 μM); 16% in the assay on PC-3 cells (PC-3, 40 μM); 8% in the assay on LNCaP cells (20 μM); 18.5% in the assay with LNCaP cells (40 μM).
